This note sets out measurements from US20120237552A1, “Peptoid Agonists of Nerve Growth Factor and Their Use as Medicaments” (priority 2009, published 2012).

“Also recorded” adds a separate entry of the source.

Experiment [1] concerns splenocytes isolated from naïve C57BL/6 mice. Description: Splenocyte proliferation assay (MOG stimulated). Type of experiment: cell-based. Conditions: MOG 10 μg/ml, splenocytes cultured 2 hours with compound before MOG, p<0.05. Here is the method:
FIG. 6 depicts effects of N35-4-8C on the peripheral immune response during EAE. […] Splenocytes were cultured for 2 hours with N35-4-8C before MOG addition. Data are means±standard error. *p<0.05 with respect to cells treated with MOG only. FIG. 6B: Gene expression profile of cytokines and inducible nitric oxide synthase (iNOS) assayed by quantitative reverse transcriptase-polymerase chain reaction (RT-PCR) in the spleen of placebo and treated animals at the end of the experiment. Data are expressed as fold change in gene expression levels in the treated groups compared with untreated controls. *p<0.05. IFN=interferon; IL=interleukin; TNF=tumor necrosis factor.
Splenocytes from naïve, non immunized C57BL/6 mice were obtained for in vitro assessment of the effect of N35-4-8C in cell proliferation. Splenocyte proliferation assay was performed as described previously (Martinez-Forero et al., 2008).

The next experiment relates to PC12 cells. Description: PC12 cell differentiation (neurite outgrowth). Particulars: 3 days, peptoids 2 ng/ml to 50 μg/ml, reduced serum (0.5% FBS and 1% HS); compared with NGF 100 ng/ml. Type of experiment: cell-based, rat. How it is done:
PC 12 cell differentiation was measured by plating cells onto collagen-coated 24-wells plates. NGF (100 ng/ml) or the small chemicals at different concentrations were added and the percentage of cells with neurite processes greater than two cell bodies in length were counted after relevant treatment. For each experiment at least 300 cells were randomly measured (Burstein and Greene, 1978).
PC12 cells were maintained at 37° C. in DMEM supplemented with 2.5% FBS, 15% of Horse serum (HS) and penicillin/streptomycin in a humidified 5% CO2 incubator. The cells were grown on 60- and 100-mm tissue culture dishes (Becton Dickinson).
PC 12 cells were cultured for 3 days in the presence of the peptoids (from 2 ng/ml to 50 μg/ml) under reduced serum conditions (0.5% FBS and 1% HS).

In a further experiment the test system is C57BL/6 EAE mice. Kind of experiment: Experimental autoimmune encephalomyelitis (EAE) clinical score. Format: in vivo. Conditions: daily intraperitoneal, day 0 to day 25. Here is the method:
Trials were approved by the Parc Cientific de Barcelona Committee on Animal Care. Female C57BL/6 mice from Harlan (8-12 weeks old) were immunized subcutaneously in both hind pads with 300 μg of myelin oligodendrocyte glycoprotein (MOG) peptide 35-55 (Spikem, Firenze) emulsified with 50 μg of Mycobacterium tuberculosis (H37Ra strain; Difco, Detroit, Mich.) in incomplete Freund's adjuvant (IFA) as previously described (Adams et al. 2007). Mice were intraperitoneally injected with Pertussis toxin (Sigma)(500 ng) at the time of immunization and 2 days later. Animals were weighted and inspected for clinical signs of disease on a daily basis by a blinded observer. Disease severity of EAE was assessed according to the following scale: 0=normal; 0.5=mild limp tail; 1=limp tail; 2=mild parapesis of the hind limbs, unsteady gait; 3=moderate parapesis, voluntary movements still possible; 4=paraplegia or tetraparesis; 5=moribund state. Data shown for the clinical studies are representative of two independent experiments performed with the indicated number of animals (Moreno et al., 2006).
The agonist molecules selected for the animal studies, N35-4-8C, N6-4-17C and N35-4-17C, were prepared in water with 5% DMSO. Animals were treated with the agonist molecule (25, 50 and 100 mg/kg) or placebo (water+5% DMSO) through daily intraperitoneal injection starting after immunization. At the end of the study, mice were anesthetized and perfused intracardially with 4% of paraformaldehyde in 0.1M phosphate buffer (pH 7.6). Brains, spinal cords and spleens were dissected and either fixed or frozen until use. Serum was obtained from all animals included in the study, and transaminases levels were measured.
In order to evaluate the effects of the NGF-like peptoids “in vivo”, we studied the effect of the NGF-mimetic peptoids in the animal model of MS. C57BL/6 mice immunized with MOG35-55 peptide were treated daily with N35-4-8C, N6-4-17C and N35-4-17C intraperitoneally from day 0 to day 25 at a different concentrations of the compound. N35-4-8C was tested at 3 different concentrations selected in base to previous experiments using agonist molecules in animal models: 25 mg/kg, 50 mg/kg and 100 mg/kg. […] N35-4-17C was also tested at the same concentrations. […] Moreover, the treatment had higher clinical scores with a clear worsening in the progression of the disease (FIG. 4C).

Experiment [2] deals with TNFα, IL2, iNOS gene expression. Description: Cytokine and iNOS gene expression in spleen of EAE mice (quantitative RT-PCR). Particulars: end of the experiment, treated vs placebo. Format: in vivo. How it is done: Brains and spinal cords from mice obtained at the time of death were homogenized in RNA lysis buffer. Total RNA was extracted using the RNeasy Mini Kit (Qiagen, Chatwworth, Calif.) isolation system, including DNase treatment using the RNase-Free DNase Set (Quiagen). Total RNA (35 μg) was reverse transcribed using the Reverse Transcription System (High Capacity cDNA Archive Kit; Applied Biosystems, Foster City, Calif.). The real time reaction was conducted at 25° C. for 10 minutes, followed by 37° C. for 2 hours, and finally stored at 4° C. Primers and target-specific fluorescence-labeled TaqMan probes were purchased from Applied Biosystems (TaqMan Gene Expression assays). We used the TaqMan Universal Master Mix (Applied biosystems). Amplification of complementary DNA was performed on a DNA Engine Opticon 2 Real-Time System (MJ Research, Watertown, Mass.) using 0.9 μM for each primer and 0.25 μM for the probe and 20 ng complementary DNA. The reaction conditions were an initial 2 minutes at 50° C., followed by 10 minutes at 95° C. and 40 cycles of 15 seconds at 95° C. and 1 minute at 60° C. Each sample was run in triplicate, and in each plate the target and the endogenous control were amplified in different wells. The expression of the gene tested was quantified relative to the level of the housekeeping gene 18rRNA (Palacios et al., 2008).
To assess which was the effect of this compound in the peripheral immune response, the proliferative response against the immunizing antigen (MOG) in splenocytes of naïve animals and the cytokine profile in spleen cells from placebo and treated animals were evaluated. […] Gene expression of interleukin2 (IL2), Interferon γ (IFNγ), tumor necrosis factor α (TNFα), inducible nitric oxide synthase (iNOS) and interleukin 10 (IL10) was investigated by quantitative reverse transcriptase PCR at the end of the experiment in splenocytes from placebo and treated animals.

For `CC(C)CCN(CC(=O)N(CCCN1CCCC1=O)CC(N)=O)C(=O)CNCCc1ccccc1F` [N35-4-8C, [N-(2-(2′-Fluorophenyl)ethyl)glycyl]-[N-(3-methylbutyl)glycyl]-N-[3-(2′-oxopyrrolidinyl)propyl]glycinamide], the “MOG specific proliferative response of splenocytes” value in experiment [1] was “significantly lower; also recorded: inhibits the proliferation of splenocytes”. Moreover, the “differentiation of PC12 cells” value with PC12 cells is “induce the differentiation of PC12 cells at different concentrations to an extent substantially comparable with that induce by NGF”. Besides, in the experiment on C57BL/6 EAE mice (25 mg/kg), the EAE clinical severity entry is listed as “no effect in disease clinical severity”. In addition, the EAE clinical severity result with C57BL/6 EAE mice (50 mg/kg) is reported as “an effect but more moderate”. Further, the EAE clinical severity entry with C57BL/6 EAE mice (100 mg/kg) was “almost a complete prevention of EAE; also recorded: prevents EAE”. In addition, in experiment [2], the “gene expression of IL2 in spleen” value is on record as “significant decrease”, the “gene expression of TNFα in spleen” value was “significant decrease” and the “gene expression of iNOS in spleen” value is listed as “significant decrease”.
